Consider one compound from patent publication US20170340598A1, “Method of Reducing Uric Acid with Fucoxanthin-Containing Composition” (TCI Co., Ltd., priority 2016, published 2017).

Experiment [1] relates to NOS2 (inducible nitric oxide synthase) gene. As to the kind of experiment: NOS2 gene expression in MSU-induced ADTC5 cells (qPCR). Format: cell-based, mouse. The conditions noted are these: extract 2 mg/ml, fucoxanthin 1 ppm, normalized to β-actin. The protocol: Next, the cells were treated with monosodium urate (MSU) (0.125 mg/ml, in medium) to induce uric acid crystallization. Cells were divided into three groups: Group 1 was treated with Ascophyllum nodosum extract extracted for 120 minutes (2 mg/ml, in medium); group 2 was treated with fucoxanthin (1 ppm, in medium); group 3 was untreated (the control group). […] Next, reverse transcription was performed using a SuperScript™ reverse transcription kit (Invitrogen). The NOS2 (inducible nitric oxide synthase) gene was quantified using the ABI StepOnePlus™ System (Applied Biosystems), and β-actin was used as a reference gene for normalizing each sample. It is known that accumulation of uric acid crystals in the joints causes inflammation in joint cavities, which leads to the increase of NOS2 gene expression in chondrocytes. Therefore, NOS2 gene expression levels were used to evaluate the degree of inflammation of cells caused by uric acid crystallization. […] Statistical analysis was performed by Student's t-test (Microsoft Excel software).
On the technique in general: Real-time PCR tracks product formation cycle by cycle.

The target of experiment [2] is xanthine oxidase (Homo sapiens, UniProt P47989). Briefly: Evaluation of the inhibition of xanthine oxidase activity. The conditions noted are these: extract extracted for 120 minutes; fucoxanthin at the same concentration as the extract. Format: biochemical. The protocol: 50 μL of the test sample, 35 μL of phosphate buffer (70 mM, pH 7.5) and 30 μL of xanthine oxidase (0.02 units/mL) were mixed and shaken, and allowed to stand at room temperature for 15 minutes. Then, 60 μL of xanthine (150 μM) was added and allowed to react at room temperature for 30 minutes; the reaction was then stopped by the addition of 100 μL of the HCl (1N), followed by measuring absorbance at 290 nm. The inhibitory effect of the test sample against xanthine oxidase activity was evaluated and compared with the control group.
Sequence of xanthine oxidase (P47989 whole entry, species assumed): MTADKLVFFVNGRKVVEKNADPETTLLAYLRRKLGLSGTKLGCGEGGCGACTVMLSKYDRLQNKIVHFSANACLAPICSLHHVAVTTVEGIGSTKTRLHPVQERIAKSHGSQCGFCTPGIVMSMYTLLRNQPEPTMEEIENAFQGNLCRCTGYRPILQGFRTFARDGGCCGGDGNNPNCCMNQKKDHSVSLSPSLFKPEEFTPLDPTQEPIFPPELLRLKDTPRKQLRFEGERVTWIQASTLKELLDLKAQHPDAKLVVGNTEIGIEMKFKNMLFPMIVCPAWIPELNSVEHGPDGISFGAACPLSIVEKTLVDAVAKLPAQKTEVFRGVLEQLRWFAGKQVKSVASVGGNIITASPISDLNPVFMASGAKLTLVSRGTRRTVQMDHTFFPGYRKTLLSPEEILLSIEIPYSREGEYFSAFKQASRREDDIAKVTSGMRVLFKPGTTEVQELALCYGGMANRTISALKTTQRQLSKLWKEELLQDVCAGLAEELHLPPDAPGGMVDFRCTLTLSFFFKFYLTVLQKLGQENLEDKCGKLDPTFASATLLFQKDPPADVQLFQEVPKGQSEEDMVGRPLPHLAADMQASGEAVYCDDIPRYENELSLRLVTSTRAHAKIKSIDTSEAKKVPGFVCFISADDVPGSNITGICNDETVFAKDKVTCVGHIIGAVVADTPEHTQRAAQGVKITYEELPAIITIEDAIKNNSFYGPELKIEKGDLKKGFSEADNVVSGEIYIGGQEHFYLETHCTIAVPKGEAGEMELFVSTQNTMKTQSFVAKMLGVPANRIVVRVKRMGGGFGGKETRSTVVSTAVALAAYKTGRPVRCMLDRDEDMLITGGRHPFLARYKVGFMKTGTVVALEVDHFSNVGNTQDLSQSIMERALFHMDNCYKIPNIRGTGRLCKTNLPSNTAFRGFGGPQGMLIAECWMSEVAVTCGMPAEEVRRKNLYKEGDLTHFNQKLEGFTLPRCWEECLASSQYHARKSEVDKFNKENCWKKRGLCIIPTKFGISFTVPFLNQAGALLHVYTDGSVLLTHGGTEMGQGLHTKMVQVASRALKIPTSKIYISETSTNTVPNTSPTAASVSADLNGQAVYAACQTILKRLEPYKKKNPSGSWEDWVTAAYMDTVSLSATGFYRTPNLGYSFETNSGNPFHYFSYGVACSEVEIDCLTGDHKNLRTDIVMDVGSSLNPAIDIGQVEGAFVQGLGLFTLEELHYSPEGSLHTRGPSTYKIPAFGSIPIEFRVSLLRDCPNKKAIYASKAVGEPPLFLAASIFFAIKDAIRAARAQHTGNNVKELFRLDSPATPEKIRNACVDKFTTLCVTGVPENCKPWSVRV

Regarding `CC(=O)O[C@H]1CC(C)(C)C(=C=C/C(C)=C/C=C/C(C)=C/C=C/C=C(C)/C=C/C=C(\C)C(=O)C[C@@]23O[C@]2(C)C[C@@H](O)CC3(C)C)[C@](C)(O)C1` [fucoxanthin], the “NOS2 gene expression level (MSU-induced group expressed as 1)” value in experiment [1] (ADTC5 cells co-treated with MSU 0.125 mg/ml for 24 hours) turned out to be 0.24; in experiment [1] (ADTC5 cells co-treated with MSU 0.125 mg/ml for 48 hours) it was 0.12. The “inhibition rate against xanthine oxidase” value in experiment [2] is reported as 44%.
